Broadly, the EC50 is the concentration at which the effect is half-maximal.

Molecules are shown by their SMILES. Converted amounts (≈) assume the structure as drawn. Bounds are passed on as bounds.

Experiment [1] deals with L. donovani. Briefly: In vitro antileishmanial activity in primary mouse macrophages, L. donovani. The class given is cell-based. Conditions: Leishmania donovani, Macrophage, L. donovani (visceral). On the procedure: (§1) Methods for the in vitro growth of Leishmania organisms and screening methodology are well documented in the international literature. Testing protocols are flexible and may be adapted according to the specific objectives and the characteristics of the test compounds. Briefly, the following in vitro methodology has been used: Primary peritoneal macrophages derived from laboratory rodents or macrophage cell lines were seeded in multiwell tissue culture vessels and allowed to attach for about 24 hours. Amastigotes of the Leishmania species (obtained from target tissues of an infected donor animal or from amastigote-infected tissue cultures) or promastigotes of the Leishmania species were added at an appropriate infection ratio together with varying serially diluted concentrations of the drug or test compound. […] Treatment of uninfected control cultures was also included in order to determine a selectivity index. Reference drug treated cultures were included as well so as to determine the relative potency of the test drug. Drug activity was determined in stained preparations as the percentage reduction of the total parasite load or the number of infected macrophages compared to the untreated control cultures.

Experiment [2] relates to L. infantum. Kind of experiment: In vitro antileishmanial activity in macrophages, L. infantum. In kind it is cell-based. Conditions: Leishmania infantum, Macrophage; L. infantum (visceral), primary mouse macrophages. On the procedure: as §1
Experiment [3] concerns L. mexicana. Kind of experiment: In vivo skin lesion model, L. mexicana (prophylactic and curative). Details: species or system mice and hamsters. Conditions: L. mexicana proph., 10 mg/kg. An excerpt: (§2) Methods for in vivo maintenance of Leishmania organisms and animals models are well documented in the international literature. Balb-C mice and golden hamsters are the preferred laboratory animal species for primary isolation, maintenance and use in artificial infection models. Testing protocols are flexible and may be adapted according to the specific objectives and characteristics of the test compounds. Briefly, the following in vivo methodologies have been used:
(§3) For cutaneous and mucocutaneous Leishmania species:Balb-C mice or young hamsters were infected intradermally or subcutaneously with about 10^6 to 10^7 amastigotes derived from the target organs (generally skin lesion) of an infected donor animal or from an in vitro culture of parasite forms. The animals were treated with the test compound at different dose levels (mg/kg in 100% DMSO or any other acceptable vehicle), using different routes of administration and treatment schedules. Initiation of treatment was either before infection (prophylactically) or at different times after infection (curatively). In the prophylactic study design, the first administration of the test drug is given immediately before or together with the artificial infection with the Leishmania species. In the curative study design, the first administration of the test drug is given several weeks after the artificial infection with the Leishmania species (early curative=when the first dermal lesions appear; late curative=when dermal lesions are well established or become chronic). Drug activity was evaluated either by determination of the severity of the lesion in the relevant target tissue/organ (primary parameter) or of the parasite burdens in the relevant target tissue/organ (secondary parameter), compared to untreated control animals. The lesion size was assessed quantitatively using the method of J. El-On. and A. D. Hamburger [Trans. Roy. Soc. Trop. Med. Hyg., 81, 734-737 (1987)]. The percentage reduction serves as an indication for antileishmanial activity and provides significant leads for clinically useful agents. The lowest active dose (LAD) is defined as the lowest dose which prevents lesions to develop, stops further evolution of the lesions or induces a clinical cure of the lesions in the primary target organ or tissue.

The subject of experiment [4] is L. major. Briefly: In vitro antileishmanial activity in primary mouse macrophages, L. major. In kind it is cell-based. Conditions: Leishmania major, Macrophage, L. major (cutaneous). On the procedure: as §1
Experiment [5] concerns L. panamensis. Kind of experiment: Lowest active dose regimen in Balb-C mice, L. panamensis. The class given is in vivo. Conditions: L. panamensis prophylactic; no regimen given.
From the text: as §2
(§4) For cutaneous and mucocutaneous Leishmania species:Balb-C mice or young hamsters were infected intradermally or subcutaneously with about 10^6 to 10^7 amastigotes derived from the target organs (generally skin lesion) of an infected donor animal or from an in vitro culture of parasite forms. The animals were treated with the test compound at different dose levels (mg/kg in 100% DMSO or any other acceptable vehicle), using different routes of administration and treatment schedules. […] Drug activity was evaluated either by determination of the severity of the lesion in the relevant target tissue/organ (primary parameter) or of the parasite burdens in the relevant target tissue/organ (secondary parameter), compared to untreated control animals. The lesion size was assessed quantitatively using the method of J. El-On. and A. D. Hamburger [Trans. […]

For experiment [6], the system named is L. panamensis. Briefly: In vivo skin lesion model, L. panamensis (prophylactic and curative). Set-up: species or system mice and hamsters. Conditions: L. panamensis proph., 10 mg/kg.
From the text: as §2, §3

The test system of experiment [7] is L mexicana. Kind of experiment: Lowest active dose regimen in Balb-C mice, L mexicana. The class given is in vivo. Conditions: L mexicana prophylactic; no regimen given.
From the text: as §2, §4

The subject of experiment [8] is L. major. Briefly: In vivo skin lesion model, L. major (prophylactic and curative). Conditions: L. major proph., 10 mg/kg. Details: species or system mice and hamsters.
From the text: as §2, §3

Experiment [9] concerns L. major. Kind of experiment: Lowest active dose regimen in Balb-C mice, L. major. The class given is in vivo. Conditions: L. major prophylactic; no regimen given.
From the text: as §2, §4

The test system of experiment [10] is L. mexicana. Kind of experiment: In vitro antileishmanial activity in primary mouse macrophages, L. mexicana. Conditions: Leishmania mexicana, Macrophage, L. mexicana (cutaneous). The class given is cell-based. On the procedure:
as §1

The subject of experiment [11] is L. donovani. Kind of experiment: Lowest active dose regimen in Balb-C mice, L. donovani. In kind it is in vivo. Conditions: no regimen given.
From the text: as §2
For visceral Leishmania species: Balb-C mice or young hamsters were intravenously infected with about 10^6 to 10^7 amastigotes derived from the target organs (generally spleen) of an infected donor animal or from an in vitro culture of parasite forms. The animals were treated with the test compound at different dose levels (dose range: 0.1 to 80 mg/kg in 100% DMSO or any other acceptable vehicle), using different routes of administration and treatment schedules. Initiation of treatment was either at different times after infection (curatively), concomitant with infection (prophylactically) or before infection (residual activity). In the prophylactic study design, the first administration of the test drug is given immediately before or together with the artificial infection with the Leishmania species. In the curative study design, the first administration of the test drug is given several weeks after the artificial infection with the Leishmania species (early curative=when the first clinical signs appear; late curative=when the clinical symptoms are well established or become chronic). Drug activity was evaluated by determination of the total parasite burdens in the liver or any other relevant target tissue/organ, compared to the tissue/organ burdens in untreated control animals. The mean number of amastigotes is enumerated quantitatively or semi-quantitatively on stained impression smears or slides. The percentage reduction serves as an indication for antileishmanial activity and provides significant leads for clinically useful agents. […]

Consider `CCC(C)n1ncn(-c2ccc(N3CCN(c4ccc(OCC5COC(Cn6cncn6)(c6ccc(Cl)cc6Cl)O5)cc4)CC3)cc2)c1=O` (centres unmarked) [itraconazole], for which the EC50 in [1] and in [2] was above 12.5 µg/mL each time.

For the compound `C[C@@H]1[C@H](O)[C@@H](C)/C=C/C=C/C=C/C=C/C=C/C=C/C=C/[C@H](O[C@@H]2O[C@H](C)[C@@H](O)[C@H](N)[C@@H]2O)C[C@@H]2O[C@](O)(C[C@@H](O)C[C@@H](O)[C@H](O)CC[C@@H](O)C[C@@H](O)CC(=O)O[C@H]1C)C[C@H](O)[C@H]2C(=O)O` [Ampho-B, amphothericin-B], the skin lesion size in experiment [3] (week 0 post infection) is 0 mm^2; in experiment [3] (week 1 post infection), 0 mm^2; in experiment [3] (week 2 post infection), 0 mm^2; in experiment [3] (week 3 post infection), 0 mm^2; in experiment [3] (week 4 post infection), 0 mm^2; in [3] (week 5 post infection) it was 1 mm^2. In addition, the skin lesion size turned out to be 2 mm^2 in experiment [3] (week 6 post infection); 7 mm^2 in experiment [3] (week 7 post infection); 13 mm^2 in experiment [3] (week 8 post infection); 34 mm^2 in experiment [3] (week 9 post infection); 85 mm^2 in experiment [3] (week 10 post infection); 101 mm^2 in [3] (week 11 post infection). For the same compound, the skin lesion size in [3] (week 12 post infection) is given as 112 mm^2; in [6] (week 0 post infection) it was 0 mm^2; in experiment [6] (week 1 post infection), 0 mm^2; in experiment [6] (week 2 post infection), 0 mm^2; in [6] (week 3 post infection) it was 0 mm^2; in [6] (week 4 post infection), 1 mm^2. Further, the skin lesion size was found to be 9 mm^2 in experiment [6] (week 5 post infection); 15 mm^2 in [6] (week 6 post infection); 30 mm^2 in experiment [6] (week 7 post infection); 30 mm^2 in [6] (week 8 post infection); 42 mm^2 in experiment [6] (week 9 post infection); 42 mm^2 in [6] (week 10 post infection). In addition, the skin lesion size is given as 43 mm^2 in experiment [6] (week 11 post infection); 39 mm^2 in [6] (week 12 post infection); 0 mm^2 in experiment [8] (week 0 post infection); 0 mm^2 in experiment [8] (week 1 post infection); 1 mm^2 in [8] (week 2 post infection); 1 mm^2 in experiment [8] (week 3 post infection). The skin lesion size is given as 12 mm^2 in [8] (week 4 post infection); 31 mm^2 in experiment [8] (week 5 post infection); 41 mm^2 in [8] (week 6 post infection); 57 mm^2 in experiment [8] (week 7 post infection); 95 mm^2 in experiment [8] (week 8 post infection). Further, the concentration for a half-maximal effect (EC50) in experiment [4] came out at 0.2 µg/mL (≈ 0.216 µM); in experiment [10] it was 0.1 µg/mL (≈ 0.108 µM); in experiment [1] it was 0.1 µg/mL (≈ 0.108 µM); in experiment [2], 0.1 µg/mL (≈ 0.108 µM). Also, the “Lowest active dose (LAD) regimen” value in [5], in [7], in [9], in [11] (L. donovani curative early) and in experiment [11] (L. donovani prophylactic) was “not effective” in each case. Besides, the residual activity result in experiment [11] (L. donovani) was “not effective”.

The values above are taken from patent US6872713B1, “Antiprotozoal saponins” (Janssen Pharmaceutica N.V., priority 1999, dated 2005).
